The subject of series [1] is 9mer ss-DNA. Description: Glycation assay and LC-MS analysis of MGO-induced DNA damage. In kind it is biochemical. The following applies: FIG. 1. From the text:
DNA Oligonucleotide Synthesis. Nine-mer single stranded DNA oligonucleotide (9mer ss-DNA) with the sequence 5′-TTTTGTTTT-3′ containing a single guanine base was synthesized by using solid-phase phosphoramidite chemistry as previously described^2 on MerMade-4 DNA synthesizer. The oligonucleotide was purified by using Thermo Scientific DNAPac PA100 Oligonucleotide anion-exchange column (4×250 mm, 13 μm) with two mobile phases. Solvent A was water, and solvent B was 1.5M ammonium acetate in water. The oligonucleotide was characterized by HPLC electrospray ionization (ESI) triple quadrupole-TOF mass spectrometry (MS). The concentration of oligonucleotide was determined by measuring UV absorbance at 260 nm on a NanoDrop spectrophotometer.
Glycation Assay and LC-MS Analysis. […] LC-MS analysis was carried out on AB Sciex triple quadrupole-TOF 4600 mass spectrometer. […]
Statistical Analysis. […] The data between two groups was assessed under the two-tailed Student's t test. p-value<0.05 was considered as statistically significant. […]

Series [2] deals with HaCaT cells. The series can be described thus: Protective effect on MGO induced cell damage model (CTG 2.0). In kind it is cell-based, human. The settings on record: 12.5, 25, and 50 μM pre-treatment 2 hours, then 400 μM MGO 24 hours; FIG. 5. The method, then:
(§1) HaCaT cells which were derived from human adult keratinocytes were bought from American Type Culture Collection (Manassas, Va., USA). The cells were maintained in DMEM supplemented with 5% FBS at 37° C. under an atmosphere of 5% CO2 and 95% air. The culture medium was replaced every other day.
Briefly, HaCaT cells were seeded at about 50000 cells/ml to yield 50-60% confluence in standard white-walled clear bottom 96-well plates and 6-well plates. After 12 h incubation cells were pre-treated with different concentrations of PE (0, 6.25, 12.5, 25, 50, 100, 200 μg/mL), PA (0, 3.13, 6.25, 12.5, 25, 50, 100, 200 μM), EA (0, 3.13, 6.25, 12.5, 25, 50, 100, 200 μM), and UA (0, 3.13, 6.25, 12.5, 25, 50, 100, 200 μM) for 2 hours. Then cells were washed with PBS twice and treated with 400 μM MGO for 24 hours. Cellular viability was detected using cells in 96-well plate via CTG 2.0, and cell images were taken with EVOS Cell Imaging System (Invitrogen, Waltham, Mass., USA) using cells in 6-well plates after crystal violet stain.

Series [3] relates to HaCaT cells. The series can be described thus: Reactive oxygen species (ROS) assay, DCFDA. In kind it is cell-based, human. The following applies: MGO 400 μM 24 h, FIG. 6.
Method: HaCaT cells were seeded at about 50 000 cells/ml to yield 50-60% confluence in standard white-walled clear bottom 96-well plates and 6-well plates in DMEM. After 12 h incubation cells were pre-treated with concentrations of PE (0, 6.25, 12.5, 25, 50, 100, 200 μg/mL), PA (0, 3.13, 6.25, 12.5, 25, 50, 100, 200 μM), EA (0, 3.13, 6.25, 12.5, 25, 50, 100, 200 μM), and UA (0, 3.13, 6.25, 12.5, 25, 50, 100, 200 μM) for 2 hours. Then, the medium was replaced with DMEM containing 20 μM DCFDA and MGO (400 μM) for 24 h. After incubation, all the wells were washed with PBS twice. Subsequently, the fluorescence signals from 96-well plates were read at excitation and emission wavelengths of 485 and 525 nm, respectively, using a Spectra Max M2 spectrometer (Molecular Devices, Sunnyvale, Calif., USA). Cells images were taken with EVOS Cell Imaging System (Invitrogen, Waltham, Mass., USA) using 6-well plates cells.
The test system of series [4] is HaCaT cells. Description: Hoechst 33342 staining, MGO-induced DNA damage. In kind it is cell-based, human. The following applies: 50 μM pre-treatment 2 hours, 400 μM MGO 24 hours; FIG. 7.
Method: HaCaT cells were seeded at about 50,000 cells/ml to yield 50-60% confluency in a standard 6-well plate. Cells were pre-treated with PE 50 μg/mL, PA 50 μM, EA 50 μM, and UA 50 μM, respectively for 2 hours. Then cells were washed with PBS once and treated with 400 μM of MGO for 24 hours. After that cells were washed with PBS twice and then incubated with 250 μl Hoechst 33342 (1:300 dilute with PBS) at room temperature for 15 minutes. Then cells were fixed with 75% ethanol for 15 minutes, followed by imaging with EVOS Cell Imaging System (Invitrogen, Waltham, Mass., USA).
In series [5] the test system is HaCaT cells. Description: Alkaline comet assay, MGO-induced DNA damage. In kind it is cell-based, human. The following applies: for protective effect on MGO induced DNA damage (comet assay, tail DNA): 50 μM pre-treatment 2 hours, MGO 400 μM 24 h, FIG. 8.
Method: HaCaT cells were seeded at about 100 000 cells/ml to yield 80-90% confluence in standard 6-well plates. […] After incubation, the cells were washed with PBS twice and then treated with MGO (400 μM) for 24 h. After that, comet assay was performed as per the protocol provided by [sequence] (4250-050-K). Briefly, cells were collected and combined with molten LMAgarose at a ratio of 1:10, pipetted onto Comet slides, incubate in Lysis Solution at 4° C. overnight, immerse slides in Alkaline Unwinding Solution for 20 minutes, apply electrophoresis in Alkaline Electrophoresis Solution at 21 volts for 30 minutes, fixed in 75% ethanol for 15 minutes, dry in 37° C. for 15 minutes and then stain in diluted SYBR GOLD, images were taken with EVOS Cell Imaging System (Invitrogen, Waltham, Mass., USA) and analyzed via CASP.
The test system of series [6] is HaCaT cells. The series can be described thus: Transwell assay (cell migration ability). In kind it is cell-based, human. The following applies: 50 μM pre-treatment 2 hours, 400 μM MGO 24 h; FIG. 9B.
Method: Cell migration ability was measured by transwell assay. HaCaT cells in 6-well plates were cultured up to about 80-90% confluence. Then cells were pretreated with PE 50 μg/mL, PA 50 μM, EA 50 μM, and UA 50 μM, respectively for 2 hours, then washed with PBS twice. After that, cells were exposed to 400 μM of MGO for 24 h. Then, cells were digested with trypsin and centrifuged at 300 g for 5 min. Then, 2.5×10^5 cell were suspended in 1 ml serum free DMED. 100 μl of serum free DMEM were added into the upper chamber and incubated for 5 minutes, then 600 μl DMEM containing 5% FBS were added to the 24 well plate (lower chamber). After that 300 μl of cell suspension were added into the upper chamber. After 12 h incubation, cells in upper chamber were washed with PBS and fixed with 75% ethanol for 15 minutes. Then cells in upper chamber were stained with Crystal violet for 10 minutes and washed for 5 times. Cells inside the upper chamber were removed by swab. Then, pictures were taken with EVOS Cell Imaging System (Invitrogen, Waltham, Mass., USA). After that stained cells were incubated in 75% ethanol for 15 minutes for decoloration. Then, optical density of the decoloration solution in 570 nm was calculated via Spectra Max M2 spectrometer (Molecular Devices, Sunnyvale, Calif., USA).
Series [7] concerns HaCaT cells. Description: Wound healing model (in vitro scratch healing assay). In kind it is cell-based, human. The settings on record: 50 μM pre-treatment 2 hours, 400 μM MGO 48 h; FIG. 9D, 9E. The method, then: as §1
Wound healing model was constructed with an in vitro scratch healing assay performed as described previously with certain modifications.^4 HaCaT cells in 6-well plates were cultured up to about 80-90% confluence. Then cells were pretreated with PE 50 μg/mL, PA 50 μM, EA 50 μM, and UA 50 μM, respectively for 2 hours. After the treatments, a narrow wound-like gap in the cell monolayer was created with a […] pipette tip in each well. The shedding cells were washed off with PBS and then the images were captured with EVOS Cell Imaging System (Invitrogen, Waltham, Mass., USA). The cells were further exposed to 400 μM MGO for 48 h and the cell images were captured with EVOS Cell Imaging System (Invitrogen, Waltham, Mass., USA). Gap area was analyzed in image J, a software quantifying visualization image data, and the wound healing rate was calculated as follows=[…]/Gap Area(0 h)×100%.

Series [8] concerns HaCaT cells. Description: Cell viability of HaCaT cells exposed to test substances (CTG 2.0). In kind it is cell-based, human. The following applies: 0-200 μM, 24 hours, FIG. 3. The method, then: as §1
Cellular viability was assessed using the Cell Titer Glo2.0 (CTG 2.0) one-step assay. Briefly, HaCaT cells were seeded at about 50 000 cells/ml to yield 50-60% confluence in a standard white-walled clear bottom 96-well plate. HaCaT cells were exposed to different concentration of PE (0, 6.25, 12.5, 25, 50, 100, 200 μg/mL), PA (0, 3.13, 6.25, 12.5, 25, 50, 100, 200 μM), EA (0, 3.13, 6.25, 12.5, 25, 50, 100, 200 μM), and UA (0, 3.13, 6.25, 12.5, 25, 50, 100, 200 μM) for 24 hours. Following the pre-determined incubation period of 24 hours, CTG 2.0 was added in a 1:1 ratio with existing media and mixed for 5 minutes on an orbital shaker prior to luminescence measurement (Spectramax M2, Molecular Devices, Sunnyvale, Calif., USA).

In series [9] the test system is HaCaT cells. Description: MGO induced cell damage model (CTG 2.0, crystal violet staining). In kind it is cell-based, human. The following applies: 24 hours. The method, then: as §1
Briefly, HaCaT cells were seeded at about 50000 cells/ml to yield 50-60% confluence in standard white-walled clear bottom 96-well plates and 6-well plates. After 12 h incubation cells were treated with different concentrations of MGO ([…], 200 μM, 300 μM, 400 μM, 500 μM and 600 μM) for 24 hours respectively and use non-treated group as control. Cellular viability was detected using cells in 96-well plates via CTG 2.0. […] At higher concentrations than 400 μM the damaged caused by MGO to the cells was extreme. Morphological analysis was conducted to evaluate cell damage with crystal violet staining method in 6-well plates as per the below mentioned procedure.
Briefly crystal violet staining were carried with protocol provided by sigma. The staining solution was prepared by dissolve 5 g of crystal violet powder into 100 ml 20% ethanol to make. HaCaT cells in 6-well plates were fixed with 75% ethanol 15 minutes in room temperature. Then cells were incubated with staining solution for 10 minutes. After that cells were washed with PBS for 5 times. Subsequently, pictures were taken under EVOS Cell Imaging System (Invitrogen, Waltham, Mass., USA).
Excessive accumulation of MGO is harmful for skin cells, so the effects of MGO on cell viability at various concentrations on HaCaT cells were evaluated first.

The values that follow come from patent publication US20200085895A1, “PUNICALAGIN COMPOSITIONS AND METHODS FOR THE TREATMENT OF DISORDERS ARISING FROM METHYLGLYOXAL-INDUCED DNA DAMAGE” (Verdure Sciences, priority 2018, published 2020).

“Also recorded” adds a separate entry of the source.

As to `O=C1O[C@H]2[C@@H]3OC(=O)c4cc(O)c(O)c(O)c4-c4c(O)c(O)c5oc(=O)c6c(c(O)c(O)c7oc(=O)c4c5c76)-c4c(cc(O)c(O)c4O)C(=O)OC[C@H]3OC(O)[C@@H]2OC(=O)c2cc(O)c(O)c(O)c2-c2c1cc(O)c(O)c2O` (mixture of isomers) [PA, punicalagin], the “protective effect against methylglyoxal (MGO)-induced DNA damage” value in series [1] (200 μM 9mer ss-DNA, 200 μM MGO, pH 7.4, 37° C., 7 days) was “protective effect”. In addition, the “activity in reducing DNA damage compared with aminoguanidine (AG) positive control” value in series [1] (equivalent concentration (50 μM)) was “considerably more active”. In series [2], the “cell viability of HaCaT cells exposed to MGO, compared to non-treated group” value is reported as “significantly increased cell viability”. Also, in [3] (12.5, 25, and 50 μM pre-treatment 2 hours), the “production of MGO induced ROS in HaCaT cells, compared to non-treated group” value (“production … compared to non-treated group” for short) is on record as “significantly reduced the production of MGO induced ROS”. The “DNA damage level caused by MGO (Hoechst staining)” value (“DNA damage level caused by MGO” for short) in [4] was “can reduce the DNA damage level”. In addition, the “protective effect on MGO induced DNA damage (comet assay, tail DNA)” value (“protective effect … (comet assay, tail DNA)” for short) in series [5] is “protective effect”. The “cell migration ability (transwell assay)” value in series [6] is reported as “promotive effects”. The “wound healing process in the presence of MGO” value in series [7] was “can promote the wound healing process”.

Turning to `O=c1oc2c(O)c(O)cc3c(=O)oc4c(O)c(O)cc1c4c23` [EA, ellagic acid], in [8], the “cytotoxicity to HaCaT cells” value is given as “not cytotoxic”. Also, the “production … compared to non-treated group” value in series [3] (50 μM pre-treatment 2 hours) is given as “significantly reduced the production of MGO induced ROS”. Further, in series [4], the “DNA damage level caused by MGO” value is “can reduce the DNA damage level”. Also, the “protective effect … (comet assay, tail DNA)” value in [5] was “no protective effects”. In addition, the “cell migration ability (transwell assay)” value in series [6] is given as “promotive effects”.

Consider `CC(=O)C=O` [MGO, methylglyoxal], for which the “effect of MGO on HaCaT cell viability” value in [9] (MGO 100-300 μM) is recorded as “did not affect the cell viability; also recorded: non-toxic”; in [9] (MGO at 400 μM or higher) it was “significant cytotoxicity”; in series [9] (MGO higher than 400 μM), “extreme; also recorded: extremely cytotoxic”. Also, the “percentage of fracture DNA compared to control group (comet assay)” value in series [5] (MGO 400 μM alone, 24 h) is on record as “could increase the percentage of fracture DNA”.

For the molecule `O=c1oc2cc(O)ccc2c2ccc(O)cc12` [UA, urolithin A], the “cytotoxicity to HaCaT cells” value in [8] is on record as “not cytotoxic”. Moreover, the “production … compared to non-treated group” value in series [3] (25 and 50 μM pre-treatment 2 hours) is “significantly reduced the production of MGO induced ROS”. In addition, the “DNA damage level caused by MGO” value in series [4] is “can reduce the DNA damage level”. For the same molecule, the “protective effect … (comet assay, tail DNA)” value in series [5] is on record as “no protective effects”. In addition, the “cell migration ability (transwell assay)” value in series [6] is “promotive effects”.
